Patent US20230301300A1, “HERBICIDAL COMPOSITIONS” (SYNGENTA CROP PROTECTION AG, priority 2020, published 2023)

Assays:
Format in all cases: in vivo
[1] = tested on: Amaranthus retoflexus (AMARE); experiment: B1 Post-Emergence Efficacy - Test 1; conditions: 1000 g/ha, after 13 days, five point scale
How it was run: (§1)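 Post-emergence spray at 1000 g/ha on plants grown 8 days in glasshouse (24/16 °C, 14 h light, 65% humidity), formulated in acetone/water with 0.5% Tween 20. Damage scored after 13 days on a five-point scale (5=80-100% down to 1=0-19%).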

[2] = tested on: Echinochloa crus-galli (ECHCG); experiment: B1 Post-Emergence Efficacy - Test 1; conditions: 1000 g/ha, after 13 days, five point scale
How it was run: as §1

[3] = tested on: Ipomoea hederacea (IPOHE); experiment: B1 Post-Emergence Efficacy - Test 1; conditions: 1000 g/ha, after 13 days, five point scale
How it was run: as §1

Lolium perenne (LOLPE) = experiment: B1 Post-Emergence Efficacy - Test 1; conditions: 1000 g/ha, after 13 days, five point scale
How it was run: as §1

Setaria faberi (SETFA) [4] = experiment: B1 Post-Emergence Efficacy - Test 1; conditions: 1000 g/ha, after 13 days, five point scale
How it was run: as §1

Solanum nigrum (SOLNI) = experiment: B1 Post-Emergence Efficacy - Test 1; conditions: 1000 g/ha, after 13 days, five point scale
How it was run: as §1

[5] = tested on: Amaranthus retroflexus (AMARE); experiment: B2 Post-Emergence Efficacy - Test 2; conditions: 15 days after application, 0-100 scale
Method: (§2) Seeds of a variety of test species (see Table B1) were sown in standard soil in pots. After cultivation for 12 days (post-emergence) under controlled conditions in a glasshouse (at 24/18° C. or 20/16° C., at day/night; 16 hours light; 65% humidity), the plants were sprayed with an aqueous spray solution derived from the formulation of the technical active ingredient dissolved in IF50 (see Table B2 for composition) and adjuvant (Genapol X080) was added to the spray solution at a rate of 0.2% v/v.
(§3) After application, the test plants were grown in a glasshouse under controlled conditions (as above) and watered twice daily. Herbicidal activity was evaluated 15 days after application on a 0-100 scale. The results, where 0=no damage to test plant and 100=total kill of test plant are shown below in Tables 8 to 11.

Bidens pilosa (BIDPI) = experiment: B2 Post-Emergence Efficacy - Test 2; conditions: 15 days after application, 0-100 scale
Method: as §2, §3

[6] = tested on: Brachiaria plantaginea (BRAPL); experiment: B2 Post-Emergence Efficacy - Test 2; conditions: 15 days after application, 0=no damage, 100=total kill
Method: as §2, §3

[7] = tested on: Chenopodium album (CHEAL); experiment: B2 Post-Emergence Efficacy - Test 2; conditions: 15 days after application, 0-100 scale
Method: as §2, §3

[8] = tested on: Echinochloa crus galli (ECHCG); experiment: B2 Post-Emergence Efficacy - Test 2; conditions: 15 days after application, 0=no damage, 100=total kill
Method: as §2, §3

Hordeum vulgare (HORVW) = experiment: B2 Post-Emergence Efficacy - Test 2; conditions: 15 days after application, 0-100 scale
Method: as §2, §3

Kochia scoparia (KSHSC) = experiment: B2 Post-Emergence Efficacy - Test 2; conditions: 15 days after application, 0-100 scale
Method: as §2, §3

Orysa sativa (ORYSA) = experiment: B2 Post-Emergence Efficacy - Test 2; conditions: 15 days after application; for Herbicidal activity ORYSA: 0-100 scale; for Herbicidal activity on a 0-100 scale, ORYSA: 0=no damage, 100=total kill
Method: as §2, §3

Setaria faberi (SETFA) [9] = experiment: B2 Post-Emergence Efficacy - Test 2; conditions: 15 days after application, 0=no damage, 100=total kill
Method: as §2, §3

Stellaria media (STEME) = experiment: B2 Post-Emergence Efficacy - Test 2; conditions: 15 days after application, 0-100 scale
Method: as §2, §3

[10] = tested on: Triticum aestivum (TRZAW); experiment: B2 Post-Emergence Efficacy - Test 2; conditions: 15 days after application, 0-100 scale
Method: as §2, §3

Veronica persica (VERPE) = experiment: B2 Post-Emergence Efficacy - Test 2; conditions: 15 days after application, 0-100 scale
Method: as §2, §3

Cc1nn(C)c(=O)c(-c2c(F)ccc(Cl)c2CCc2ccc(C(F)(F)F)nc2)c1O [Compound 1.042, 4-[3-chloro-6-fluoro-2-[2-[6-(trifluoromethyl)-3-pyridyl]ethyl]phenyl]-5-hydroxy-2,6-dimethyl-pyridazin-3-one]
60: Herbicidal activity KCHSC (Kochia scoparia (KSHSC); 500 g/Ha) | Herbicidal activity TRZAW ([10]; 60 g/Ha)
0: Herbicidal activity KCHSC (Kochia scoparia (KSHSC); 15 g/Ha) | Herbicidal activity ORYSA (Orysa sativa (ORYSA); 15 g/Ha) | Herbicidal activity on a 0-100 scale, ORYSA (Orysa sativa (ORYSA); 15 g/Ha) | Herbicidal activity ORYSA (Orysa sativa (ORYSA); 30 g/Ha) | Herbicidal activity on a 0-100 scale, ORYSA (Orysa sativa (ORYSA); 30 g/Ha) | Herbicidal activity ORYSA (Orysa sativa (ORYSA); 60 g/Ha) | Herbicidal activity on a 0-100 scale, ORYSA (Orysa sativa (ORYSA); 60 g/Ha) | Herbicidal activity ORYSA (Orysa sativa (ORYSA); 125 g/Ha) | Herbicidal activity on a 0-100 scale, ORYSA (Orysa sativa (ORYSA); 125 g/Ha)
100: Herbicidal activity AMARE ([5]; 30 g/Ha) | Herbicidal activity AMARE ([5]; 60 g/Ha) | Herbicidal activity AMARE ([5]; 125 g/Ha) | Herbicidal activity AMARE ([5]; 250 g/Ha) | Herbicidal activity AMARE ([5]; 500 g/Ha) | Herbicidal activity CHEAL ([7]; 250 g/Ha) | Herbicidal activity CHEAL ([7]; 500 g/Ha) | Herbicidal activity on a 0-100 scale, ECHCG ([8]; 250 g/Ha) | Herbicidal activity on a 0-100 scale, ECHCG ([8]; 500 g/Ha) | Herbicidal activity on a 0-100 scale, SETFA (Setaria faberi (SETFA) [9]; 500 g/Ha) | Herbicidal activity STEME (Stellaria media (STEME); 15 g/Ha) | Herbicidal activity STEME (Stellaria media (STEME); 30 g/Ha) | Herbicidal activity STEME (Stellaria media (STEME); 125 g/Ha) | Herbicidal activity STEME (Stellaria media (STEME); 250 g/Ha) | Herbicidal activity STEME (Stellaria media (STEME); 500 g/Ha) | Herbicidal activity VERPE (Veronica persica (VERPE); 60 g/Ha) | Herbicidal activity VERPE (Veronica persica (VERPE); 125 g/Ha) | Herbicidal activity VERPE (Veronica persica (VERPE); 250 g/Ha) | Herbicidal activity VERPE (Veronica persica (VERPE); 500 g/Ha)
50: Herbicidal activity ORYSA (Orysa sativa (ORYSA); 500 g/Ha) | Herbicidal activity on a 0-100 scale, ORYSA (Orysa sativa (ORYSA); 500 g/Ha)
70: Herbicidal activity BIDPI (Bidens pilosa (BIDPI); 15 g/Ha) | Herbicidal activity BIDPI (Bidens pilosa (BIDPI); 30 g/Ha) | Herbicidal activity BIDPI (Bidens pilosa (BIDPI); 60 g/Ha) | Herbicidal activity BIDPI (Bidens pilosa (BIDPI); 125 g/Ha) | Herbicidal activity TRZAW ([10]; 125 g/Ha)
40: Herbicidal activity HORVW (Hordeum vulgare (HORVW); 125 g/Ha) | Herbicidal activity on a 0-100 scale, SETFA (Setaria faberi (SETFA) [9]; 15 g/Ha)
30: Herbicidal activity KCHSC (Kochia scoparia (KSHSC); 250 g/Ha) | Herbicidal activity TRZAW ([10]; 30 g/Ha)
80: Herbicidal activity BIDPI (Bidens pilosa (BIDPI); 250 g/Ha) | Herbicidal activity on a 0-100 scale, BRAPL ([6]; 15 g/Ha) | Herbicidal activity on a 0-100 scale, BRAPL ([6]; 30 g/Ha) | Herbicidal activity on a 0-100 scale, ECHCG ([8]; 15 g/Ha) | Herbicidal activity HORVW (Hordeum vulgare (HORVW); 250 g/Ha) | Herbicidal activity HORVW (Hordeum vulgare (HORVW); 500 g/Ha) | Herbicidal activity on a 0-100 scale, SETFA (Setaria faberi (SETFA) [9]; 30 g/Ha) | Herbicidal activity TRZAW ([10]; 250 g/Ha) | Herbicidal activity TRZAW ([10]; 500 g/Ha) | Herbicidal activity VERPE (Veronica persica (VERPE); 15 g/Ha)
20: Herbicidal activity HORVW (Hordeum vulgare (HORVW); 30 g/Ha) | Herbicidal activity HORVW (Hordeum vulgare (HORVW); 60 g/Ha) | Herbicidal activity KCHSC (Kochia scoparia (KSHSC); 125 g/Ha) | Herbicidal activity ORYSA (Orysa sativa (ORYSA); 250 g/Ha) | Herbicidal activity on a 0-100 scale, ORYSA (Orysa sativa (ORYSA); 250 g/Ha) | Herbicidal activity TRZAW ([10]; 15 g/Ha)
10: Herbicidal activity HORVW (Hordeum vulgare (HORVW); 15 g/Ha) | Herbicidal activity KCHSC (Kochia scoparia (KSHSC); 30 g/Ha) | Herbicidal activity KCHSC (Kochia scoparia (KSHSC); 60 g/Ha)
90: Herbicidal activity BIDPI (Bidens pilosa (BIDPI); 500 g/Ha) | Herbicidal activity on a 0-100 scale, BRAPL ([6]; 60 g/Ha) | Herbicidal activity on a 0-100 scale, BRAPL ([6]; 125 g/Ha) | Herbicidal activity on a 0-100 scale, BRAPL ([6]; 250 g/Ha) | Herbicidal activity on a 0-100 scale, BRAPL ([6]; 500 g/Ha) | Herbicidal activity CHEAL ([7]; 30 g/Ha) | Herbicidal activity CHEAL ([7]; 60 g/Ha) | Herbicidal activity CHEAL ([7]; 125 g/Ha) | Herbicidal activity on a 0-100 scale, ECHCG ([8]; 30 g/Ha) | Herbicidal activity on a 0-100 scale, ECHCG ([8]; 60 g/Ha) | Herbicidal activity on a 0-100 scale, ECHCG ([8]; 125 g/Ha) | Herbicidal activity on a 0-100 scale, SETFA (Setaria faberi (SETFA) [9]; 60 g/Ha) | Herbicidal activity on a 0-100 scale, SETFA (Setaria faberi (SETFA) [9]; 125 g/Ha) | Herbicidal activity on a 0-100 scale, SETFA (Setaria faberi (SETFA) [9]; 250 g/Ha) | Herbicidal activity STEME (Stellaria media (STEME); 60 g/Ha) | Herbicidal activity VERPE (Veronica persica (VERPE); 30 g/Ha)
5 (5=80-100%): percentage damage caused to the plant, AMARE [1] | percentage damage caused to the plant, ECHCG [2] | percentage damage caused to the plant, IPOHE [3] | percentage damage caused to the plant, LOLPE (Lolium perenne (LOLPE)) | percentage damage caused to the plant, SETFA (Setaria faberi (SETFA) [4]) | percentage damage caused to the plant, SOLNI (Solanum nigrum (SOLNI))
